Measurements taken from the supplement of paper PMC6045584.
± gives the standard deviation of the averaged measurements.

What was measured:
FORETINIB = compound: COc1cc2c(Oc3ccc(NC(=O)C4(C(=O)Nc5ccc(F)cc5)CC4)cc3F)ccnc2cc1OCCCN1CCOCC1 [FORETINIB]; experiment: surviving fraction relative to DMSO-only wells; higher = less growth inhibition; conditions: exposure time: 5 days
Outline: (§1)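 Log-phase tumour cell lines, 250–500 cells per well in 384-well plates, received inhibitors at 0.5, 1, 5, 10, 50, 100, 500 and 1000 nM continuously for five days, starting 24 hours after seeding. Viability was quantified with CellTiter-Glo luminescence and normalised to the median of DMSO-only wells to give surviving fraction. Three screens were run per line, and a line stayed in only with replicate Pearson r >0.7 and median Z' >0.3.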

CRIZOTINIB = compound: C[C@@H](Oc1cc(-c2cnn(C3CCNCC3)c2)cnc1N)c1c(Cl)ccc(F)c1Cl [CRIZOTINIB]; experiment: as above; conditions: exposure time: 5 days
Outline: as §1

| Test System | surviving fraction (FORETINIB; 0.5 nM) | surviving fraction (FORETINIB; 1 nM) | surviving fraction (FORETINIB; 5 nM) | surviving fraction (FORETINIB; 10 nM) | surviving fraction (FORETINIB; 50 nM) | surviving fraction (FORETINIB; 100 nM) | surviving fraction (FORETINIB; 500 nM) | surviving fraction (FORETINIB; 1000 nM) | surviving fraction (CRIZOTINIB; 0.5 nM) | surviving fraction (CRIZOTINIB; 1 nM) | surviving fraction (CRIZOTINIB; 5 nM) | surviving fraction (CRIZOTINIB; 10 nM) | surviving fraction (CRIZOTINIB; 100 nM) | surviving fraction (CRIZOTINIB; 500 nM) | surviving fraction (CRIZOTINIB; 1000 nM) | surviving fraction (CRIZOTINIB; 50 nM) |
| --- | --- | --- | --- | --- | --- | --- | --- | --- | --- | --- | --- | --- | --- | --- | --- | --- |
| SG32 HEADNECK | 1.15 ± 0.13 | 1.24 ± 0.36 | 1.27 ± 0.19 | 1.22 ± 0.041 | 1.03 ± 0.1 | 1.17 ± 0.26 | 0.374 ± 0.011 | 0.264 ± 0.0095 | 1.09 ± 0.096 | 1.05 ± 0.096 | 1.21 ± 0.066 | 0.936 ± 0.088 | 1.01 ± 0.12 | 0.541 ± 0.036 | 0.352 ± 0.016 |  |
| SG43 HEADNECK | 1.03 ± 0.26 | 0.918 ± 0.14 | 0.678 ± 0.063 | 0.732 ± 0.032 | 0.727 ± 0.15 | 0.883 ± 0.12 | 0.545 ± 0.11 | 0.247 ± 0.076 | 1.28 ± 0.25 | 1.06 ± 0.15 | 1.02 ± 0.062 | 0.947 ± 0.31 | 0.756 ± 0.094 | 0.586 ± 0.027 | 0.271 ± 0.03 | 0.87 ± 0.073 |
| SIHA CERVIX | 1.12 ± 0.02 | 1.18 ± 0.04 | 1.09 ± 0.046 | 1.09 ± 0.081 | 1.01 ± 0.066 | 1.01 ± 0.031 | 0.667 ± 0.019 | 0.523 ± 0.0076 | 1.08 ± 0.044 | 1.06 ± 0.079 | 1.12 ± 0.053 | 1.14 ± 0.061 | 1.09 ± 0.059 | 0.9 ± 0.028 | 0.662 ± 0.014 | 1.06 ± 0.046 |
| SJSA1 BONE | 1.14 ± 0.026 | 1.7 ± 0.03 | 1.69 ± 0.15 | 1.74 ± 0.063 | 1.48 ± 0.1 | 1.74 ± 0.075 | 1.46 ± 0.069 | 1.83 ± 0.038 | 1.72 ± 0.049 | 1.69 ± 0.11 | 1.65 ± 0.11 | 1.719 ± 0.008 | 1.57 ± 0.021 | 1.62 ± 0.037 | 1.06 ± 0.11 | 0.796 ± 0.079 |
| SKBR3 BREAST | 1.11 ± 0.02 | 1.14 ± 0.15 | 1.08 ± 0.063 | 1.08 ± 0.15 | 1.13 ± 0.066 | 0.982 ± 0.064 | 0.886 ± 0.065 | 0.868 ± 0.11 | 1.12 ± 0.084 | 1.1 ± 0.046 | 1.09 ± 0.03 | 1.14 ± 0.25 | 1.03 ± 0.046 | 1 ± 0.12 |  |  |
| SNU475 LIVER | 1.05 ± 0.052 | 1.03 ± 0.025 | 0.957 ± 0.087 | 1 ± 0.036 | 0.967 ± 0.016 | 0.979 ± 0.035 | 0.853 ± 0.055 | 0.502 ± 0.03 | 1.03 ± 0.029 | 1.08 ± 0.012 | 1.08 ± 0.062 | 1.1 ± 0.027 | 1.02 ± 0.03 | 0.948 ± 0.052 | 0.809 ± 0.024 | 1.01 ± 0.016 |
| SUM44 BREAST | 1.14 ± 0.27 | 1.19 ± 0.36 | 1.18 ± 0.27 | 1.23 ± 0.31 | 1.19 ± 0.21 | 1.26 ± 0.32 | 1.11 ± 0.17 | 1.12 ± 0.19 | 1.28 ± 0.41 | 1.26 ± 0.39 |  | 1.25 ± 0.42 | 1.36 ± 0.47 | 1.25 ± 0.46 | 1.17 ± 0.43 | 1.33 ± 0.42 |
| SUM149 BREAST | 0.95 ± 0.004 | 0.912 ± 0.011 | 1.04 ± 0.17 | 0.9 ± 0.0082 | 0.831 ± 0.036 | 0.969 ± 0.13 | 0.353 ± 0.05 | 0.409 ± 0.021 | 1.08 ± 0.024 | 1.05 ± 0.075 |  | 0.96 ± 0.033 |  | 0.817 ± 0.07 | 0.51 ± 0.072 | 1.01 ± 0.13 |
| SUM149.B1*.S BREAST | 1.13 ± 0.068 | 1.19 ± 0.078 | 1.12 ± 0.022 | 1.11 ± 0.021 | 1.11 ± 0.059 | 1.09 ± 0.054 | 0.855 ± 0.033 | 0.515 ± 0.067 | 1.12 ± 0.043 | 1.19 ± 0.041 | 1.15 ± 0.052 | 1.14 ± 0.067 | 1.18 ± 0.059 | 1.11 ± 0.029 | 1.03 ± 0.047 | 1.13 ± 0.058 |
| SUM159 BREAST | 1.13 ± 0.038 | 1.12 ± 0.046 | 1.11 ± 0.038 | 1.09 ± 0.028 | 1.071 ± 0.0061 | 1.06 ± 0.018 | 1.01 ± 0.018 | 0.566 ± 0.037 | 1.11 ± 0.03 | 1.12 ± 0.056 | 1.12 ± 0.039 | 1.11 ± 0.022 | 1.103 ± 0.004 | 1.11 ± 0.013 |  | 1.09 ± 0.011 |
| SYO1 SYNOVIAL | 0.989 ± 0.038 | 0.971 ± 0.05 | 0.929 ± 0.026 | 0.914 ± 0.027 | 0.821 ± 0.013 | 0.749 ± 0.028 | 0.25 ± 0.0099 | 0.189 ± 0.026 | 0.967 ± 0.015 | 1.03 ± 0.029 | 0.953 ± 0.094 | 1 ± 0.028 | 0.891 ± 0.018 | 0.399 ± 0.03 | 0.169 ± 0.008 | 0.978 ± 0.042 |
| T47D BREAST | 1.02 ± 0.032 | 1.08 ± 0.056 | 1.08 ± 0.023 | 1.08 ± 0.029 | 1.04 ± 0.025 | 1.08 ± 0.04 | 0.897 ± 0.064 | 0.898 ± 0.028 | 1.07 ± 0.024 | 1.08 ± 0.079 | 1.1 ± 0.043 | 1.08 ± 0.03 | 1.099 ± 0.0093 | 1.03 ± 0.038 | 0.93 ± 0.041 | 1.07 ± 0.045 |
| U2OS BONE | 1.03 ± 0.018 | 1 ± 0.021 | 1.04 ± 0.034 | 1.01 ± 0.037 | 1.03 ± 0.059 | 0.958 ± 0.03 | 0.558 ± 0.028 | 0.344 ± 0.024 | 1.02 ± 0.026 | 1.05 ± 0.033 | 1.03 ± 0.042 | 1.05 ± 0.029 | 1.05 ± 0.013 | 0.539 ± 0.023 | 0.459 ± 0.033 |  |
| VCAP PROSTATE | 0.975 ± 0.059 | 0.96 ± 0.13 | 1.12 ± 0.094 | 1.03 ± 0.082 | 1.11 ± 0.1 | 1.08 ± 0.2 | 0.547 ± 0.09 | 0.4 ± 0.044 | 1.09 ± 0.13 | 0.987 ± 0.1 | 1.13 ± 0.2 | 1.09 ± 0.02 |  | 0.504 ± 0.013 | 0.36 ± 0.04 | 1.02 ± 0.15 |
| VP229 BREAST | 1.31 ± 0.085 | 1.09 ± 0.11 | 1.13 ± 0.14 | 1.07 ± 0.1 | 1.14 ± 0.11 | 1.05 ± 0.15 | 0.808 ± 0.14 | 0.616 ± 0.15 |  | 1.23 ± 0.082 | 1.06 ± 0.018 | 1.23 ± 0.059 | 1.15 ± 0.14 | 1.03 ± 0.15 | 0.686 ± 0.14 | 1.14 ± 0.048 |
| YAMATO SYNOVIAL | 0.998 ± 0.072 | 1.16 ± 0.098 | 1 ± 0.12 | 1.02 ± 0.078 | 0.585 ± 0.025 | 0.369 ± 0.035 | 0.295 ± 0.017 | 0.272 ± 0.018 | 1.13 ± 0.056 | 1.1 ± 0.15 | 1.2 ± 0.14 | 1.1 ± 0.1 | 0.324 ± 0.031 | 0.221 ± 0.021 | 0.269 ± 0.021 | 0.563 ± 0.036 |
| ZR751 BREAST | 1.04 ± 0.21 | 1.12 ± 0.12 | 0.969 ± 0.1 | 1.06 ± 0.16 | 0.963 ± 0.06 | 1.07 ± 0.062 | 0.902 ± 0.062 | 0.783 ± 0.1 |  | 1.07 ± 0.14 | 0.926 ± 0.024 |  |  | 0.818 ± 0.095 | 0.747 ± 0.07 | 1.07 ± 0.1 |
